Measurements from paper PMC9571608, “Detection of Bitterness in Vitamins Is Mediated by the Activation of Bitter Taste Receptors” (Nutrients, 2022).
“And” between values parts separate entries of the source, which are not always exact repeats. Equal entries are not always repeated. Structures can show the parent of a compound that is named as a salt.

Experiments:
[1] = system: human bitter taste detection (sensory panel); experiment: Human bitter taste detection threshold, three-alternative forced choice (3-AFC), BET method; format: in vivo; conditions: 32 panelists, group BET
Text: Based on bibliographic studies, preliminary works performed in the laboratory, and the results of taste receptor functional assays, the following vitamins were included in this study: vitamin B1 (thiamine hydrochloride), vitamin B2 (riboflavin phosphate), vitamin B3 (niacinamide), and vitamin B6 (pyridoxine hydrochloride). These vitamins are present in high quantities in nutritional supplements, safe for humans (except at very high concentrations), and can induce a strong bitter taste. These concentrations were determined according to the toxicity threshold of each compound tested and the maximum daily reference intake. These compounds were prepared in commercial mineral water (Evian®, Evian, France).
The threshold values for bitter taste detection were determined by 32 panelists (18–65 years old, 14 males and 18 females, without sensory perception disorders, food allergies, drug treatments, or heart, lung, or cardiac pathologies) who were recruited from Dijon (France) and the surrounding areas. An ethical committee approved this study (Personal Protection Committee of Rennes—Ouest V, protocol code 2018A01342-53), and all panelists signed an informed consent form. A sensory test called three-alternative forced choice (3-AFC) was used in accordance with the protocol detailed in NF ISO 13301. Before performing the measurement sessions, four training sessions were provided to familiarize the panelists with the bitter taste, test procedure, and signal acquisition software. In this discriminative test, six series consisting of three samples, which were each encoded using randomly generated three-digit numbers, were simultaneously delivered to the panelists. The six 3-AFC presentations contained two blank samples (commercial mineral water, manufacturer: Evian, France) and ascending concentrations of vitamin solution. Before the test, subjects were advised that each presentation consisted of two samples that contained only water and one sample that contained a taste. For each 3-AFC presentation, subjects were asked to take the samples sequentially from left to right. Then, they placed the entirety of each sample solution in their mouths and carefully gargled to ensure that the solution was dispersed throughout the mouth. A sip-and-spit procedure was used; subjects rinsed their mouths with commercial mineral water between each series of tests. Subjects were asked to indicate which of the samples contained the stimulus. If a subject perceived no difference between the three samples, he or she was asked to choose one (forced choice). The sensory tests were conducted in a room devoted to sensory evaluation. For the case of colored samples, black-colored glasses were used, and tastings were performed under red light. […] The aim of this sensory analysis was to determine the bitter taste detection threshold for these vitamins and not an olfactory detection threshold. Therefore, the measurements were conducted using pinched nose clips. The subjects waited one minute between each series and had to thoroughly rinse their mouths. Four repetitions were performed per subject for each vitamin to obtain statistically interpretable results, which represented a total of 288 samples. During the sensory analysis session, a bitterness detection threshold of only two vitamins was used (36 samples) to avoid the ingestion of a high vitamin quantity, which is potentially harmful. The answers from the panelists were collected using software dedicated to sensory analysis (FIZZ acquisition V.2.51 software).
The best estimate threshold (BET) method was used to determine the bitter detection threshold for four vitamins. The individual best-estimated detection threshold (BET) was proposed in ASTM E679-04. ASTM E679-04 is a standard practice for the determination of odor and taste thresholds via a forced-choice ascending concentration series method of limits. […]

[2] = target: T1, TAS2R14 (Homo sapiens, UniProt Q9NYV8); experiment: Calcium mobilization assay, cells transiently expressing TAS2R14; format: cell-based; on TAS2R Receptor 14 response: key: +: positive responses (lines with background color)
T1 construct: expressed in transfected cells; host or cells: HEK293T cells stably expressing Gα16gust44
T1 sequence (Q9NYV8 1-317): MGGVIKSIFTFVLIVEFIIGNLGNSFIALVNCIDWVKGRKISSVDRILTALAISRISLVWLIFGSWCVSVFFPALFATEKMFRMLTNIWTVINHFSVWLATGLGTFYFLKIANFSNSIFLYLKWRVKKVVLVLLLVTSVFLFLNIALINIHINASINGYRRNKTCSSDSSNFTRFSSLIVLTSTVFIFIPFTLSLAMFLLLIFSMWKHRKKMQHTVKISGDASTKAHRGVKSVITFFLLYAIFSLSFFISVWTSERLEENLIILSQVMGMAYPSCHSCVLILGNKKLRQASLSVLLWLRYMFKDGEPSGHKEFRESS
Experimental: (§1) A functional expression study was carried out as described previously. TAS2R expression vectors (pcDNA5FRT-SST3-TAS2R-HSV and pEAK-10-SST3-TAS2RHSV) were kindly provided by Wolfgang Meyerhof (German Institute of Human Nutrition Postdam-Rehbruecke, Nuthetal, Germany). For all constructs, the N-terminus contained the first 45 amino acids of rat somatostatin 3 (SST3) to improve membrane targeting. A sequence coding for a herpes simplex virus glycoprotein D epitope (HSV-tag) was added at the C-terminus to allow immunocytochemical detection of the receptor [13, 14, 23, 24]. HEK293T cells stably expressing the chimeric G protein α subunit Gα16gust44 [25, 26] were seeded into poly-D-lysine-coated 96-well black plates (0.35 × 10^5 cells/well) in high-glucose DMEM supplemented with 2 mM GlutaMAX, 10% dialysed fetal bovine serum penicillin/streptomycin, and G418 (400 µg/mL), and then placed under a humidified and controlled atmosphere (37 °C and 6.3% CO2) overnight. […]
(§2) Approximately 24–26 h after transfection, cells were loaded for 1 h at 37 °C with Fluo4-AM (2 µM, Molecular Probes), which had been previously mixed with pluronic acid F-127 (0.01%) in C1 buffer (130 mM NaCl, 5 mM KCl, 10 mM HEPES, 2 mM CaCl2, 10 mM pyruvic acid, pH 7.4, 300 mOsm) containing 2.5 mM probenecid (Life Technologies). […] The calcium signal was recorded for 90 s after injection of a range of compounds using a Flexstation 3 fluorometric imaging plate reader (Molecular Devices) at a wavelength of 510 nm after excitation at 488 nm. All substance concentrations were measured in triplicate in at least three independent experiments. […]
To obtain a dose–response curve, the ratio between the maximum variation in fluorescence after ligand addition and the initial fluorescence before addition (ΔF/F0) was calculated for each well. The fluorescence signals collected for each replicate were averaged for the same substance concentration, and the fluorescence changes in the corresponding mock-transfected cells were subtracted. […]

[3] = system: 25 human TAS2Rs; experiment: Taste receptor functional assay, panel of 25 human TAS2Rs; format: cell-based; conditions: lowest concentration that could elicit TAS2R activation
Experimental: A functional expression study was carried out as described previously. TAS2R expression vectors (pcDNA5FRT-SST3-TAS2R-HSV and pEAK-10-SST3-TAS2RHSV) were kindly provided by Wolfgang Meyerhof (German Institute of Human Nutrition Postdam-Rehbruecke, Nuthetal, Germany). For all constructs, the N-terminus contained the first 45 amino acids of rat somatostatin 3 (SST3) to improve membrane targeting. A sequence coding for a herpes simplex virus glycoprotein D epitope (HSV-tag) was added at the C-terminus to allow immunocytochemical detection of the receptor [13, 14, 23, 24]. […]
as §2

[4] = target: T2, TAS2R7 (Homo sapiens, UniProt Q9NYW3); experiment: Calcium mobilization assay, cells transiently expressing TAS2R7; format: cell-based; set-up: expressed in transfected cells; host or cells: HEK293T cells stably expressing Gα16gust44; on TAS2R Receptor 7 response: key: +: positive responses (lines with background color)
T2 sequence (Q9NYW3 1-318): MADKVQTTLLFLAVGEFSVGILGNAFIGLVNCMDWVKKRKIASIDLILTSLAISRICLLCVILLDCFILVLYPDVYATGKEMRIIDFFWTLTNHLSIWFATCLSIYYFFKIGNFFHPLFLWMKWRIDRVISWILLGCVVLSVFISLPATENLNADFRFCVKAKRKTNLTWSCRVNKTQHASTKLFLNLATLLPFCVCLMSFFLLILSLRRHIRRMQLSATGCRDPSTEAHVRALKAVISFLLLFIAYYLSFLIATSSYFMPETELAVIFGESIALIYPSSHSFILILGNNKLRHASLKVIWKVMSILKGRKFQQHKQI
Experimental: A functional expression study was carried out as described previously. TAS2R expression vectors (pcDNA5FRT-SST3-TAS2R-HSV and pEAK-10-SST3-TAS2RHSV) were kindly provided by Wolfgang Meyerhof (German Institute of Human Nutrition Postdam-Rehbruecke, Nuthetal, Germany). For all constructs, the N-terminus contained the first 45 amino acids of rat somatostatin 3 (SST3) to improve membrane targeting. A sequence coding for a herpes simplex virus glycoprotein D epitope (HSV-tag) was added at the C-terminus to allow immunocytochemical detection of the receptor [13, 14, 23, 24]. HEK293T cells stably expressing the chimeric G protein α subunit Gα16gust44 [25, 26] were seeded into poly-D-lysine-coated 96-well black plates (0.35 × 10^5 cells/well) in high-glucose DMEM supplemented with 2 mM GlutaMAX, 10% dialysed fetal bovine serum penicillin/streptomycin, and G418 (400 µg/mL), and then placed under a humidified and controlled atmosphere (37 °C and 6.3% CO2) overnight. After 24–26 h of incubation, cells were transiently transfected with TAS2R expression plasmids (120 ng/well) using Lipofectamine 2000 reagent (0.4 µL/well) (Thermo Fisher Scientific, Illkirch-Graffenstaden, France).
Approximately 24–26 h after transfection, cells were loaded for 1 h at 37 °C with Fluo4-AM (2 µM, Molecular Probes), which had been previously mixed with pluronic acid F-127 (0.01%) in C1 buffer (130 mM NaCl, 5 mM KCl, 10 mM HEPES, 2 mM CaCl2, 10 mM pyruvic acid, pH 7.4, 300 mOsm) containing 2.5 mM probenecid (Life Technologies). Approximately one hour after loading, the plate was rinsed twice with 100 µL of C1 buffer. The calcium signal was recorded for 90 s after injection of a range of compounds using a Flexstation 3 fluorometric imaging plate reader (Molecular Devices) at a wavelength of 510 nm after excitation at 488 nm. All substance concentrations were measured in triplicate in at least three independent experiments. As cell transfection and substances can interfere with cellular viability and calcium assays, all compounds were tested on mock-transfected cells (cells transfected with empty vectors) on the same plates for all substance concentrations used.
(§3) To obtain a dose–response curve, the ratio between the maximum variation in fluorescence after ligand addition and the initial fluorescence before addition (ΔF/F0) was calculated for each well. The fluorescence signals collected for each replicate were averaged for the same substance concentration, and the fluorescence changes in the corresponding mock-transfected cells were subtracted. […] The dose–response data were fitted, and EC50 values were calculated using a four-parameter logistic equation using SigmaPlot software (Systat Software, San Jose, CA, USA). […]

[5] = target: T3, TAS2R10 (Homo sapiens, UniProt Q9NYW0); experiment: Calcium mobilization assay, cells transiently expressing TAS2R10; format: cell-based; on TAS2R Receptor 10 response: key: +: positive responses (lines with background color)
T3 construct: expressed in transfected cells; host or cells: HEK293T cells stably expressing Gα16gust44
T3 sequence (Q9NYW0 1-307): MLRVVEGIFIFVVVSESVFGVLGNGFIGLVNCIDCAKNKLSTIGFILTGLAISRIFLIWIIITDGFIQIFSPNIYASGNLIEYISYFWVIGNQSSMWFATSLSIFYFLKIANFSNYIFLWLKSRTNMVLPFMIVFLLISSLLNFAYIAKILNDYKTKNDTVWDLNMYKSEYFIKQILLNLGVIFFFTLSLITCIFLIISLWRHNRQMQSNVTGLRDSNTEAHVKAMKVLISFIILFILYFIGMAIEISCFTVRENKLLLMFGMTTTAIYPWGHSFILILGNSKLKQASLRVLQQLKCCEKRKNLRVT
Experimental: as §1
Approximately one hour after loading, the plate was rinsed twice with 100 µL of C1 buffer. The calcium signal was recorded for 90 s after injection of a range of compounds using a Flexstation 3 fluorometric imaging plate reader (Molecular Devices) at a wavelength of 510 nm after excitation at 488 nm. All substance concentrations were measured in triplicate in at least three independent experiments. […]
as §3

[6] = system: human taste perception; set-up: method as in doi:10.3758/BF03203878; conditions: concentration omitted in the cited paper; cited from earlier work
[7] = HEK293T-Gα16gust44 cells, calcium signal, up to M.A.C

| SMILES | Human Bitter Taste Detection Threshold ([1]; Figure 3, aqueous solution) [mM] | Human Bitter Taste Detection Threshold ([1]; aqueous solution (mineral water), nose clips) | TAS2R14 response ([2]; 100 mM) | TAS2R Receptor 14 response [2, 7] | EC50 ([2]; TAS2R14-expressing HEK293T cells, Fluo-4 calcium response, read-out: EC50 (half-maximal TAS2R14 activation)) [mM] | Cellular Bitter Taste Detection Threshold [3] | Human Bitter Taste Detection Threshold ([1]; aqueous solution (mineral water), nose clips, listed as B6) [mM] | Human Bitter Taste Detection Threshold ([1]; aqueous solution (mineral water), nose clips, listed as vitamin B6) [mM] | TAS2R7 response ([4]; 100 mM) | TAS2R Receptor 7 response [4, 7] | EC50 ([4]; TAS2R7-expressing HEK293T cells, Fluo-4 calcium response, read-out: EC50 (half-maximal TAS2R7 activation)) [mM] | TAS2R10 activation ([5]; 1 mM) | TAS2R Receptor 10 response [5, 7] | EC50 ([5]; read-out: EC50 (half-maximal TAS2R10 activation), TAS2R10-expressing HEK293T cells, Fluo-4 calcium response) [mM] | Taste described by sensory analysis [6] |
| --- | --- | --- | --- | --- | --- | --- | --- | --- | --- | --- | --- | --- | --- | --- | --- |
| NC(=O)c1cccnc1 [Vitamin B3, niacinamide] | 5.5 | 5.5 mM and 5.50 mM | – | – | – | – | – | – | – | – | – | – | – | – | – |
| Cc1ncc(CO)c(CO)c1O [Vitamin B6, pyridoxine hydrochloride] | 5.2 | – | robust response | + | 10.5 ± 1.47 | 1 mM and 1.00 mM | 5.20 | 5.2 | robust response | + | 25.5 ± 11.8 | – | – | – | – |
| C=C1CC[C@H](O)C/C1=C/C=C1\CCC[C@]2(C)[C@@H]([C@H](C)CCCC(C)C)CC[C@@H]12 [Vitamin D, cholecalciferol] | – | – | – | – | – | – | – | – | – | – | – | strongly activate | + | 0.25 ± 0.2 | tasteless |
